According to patent publication US11214565B2, “Compound, compositions, and methods” (Denali Therapeutics Inc., priority 2015, dated 2022):

Biological target: LRRK2 G2019S enzyme (Homo sapiens (Human), UniProt Q5S007, G2019S)
Experiment: LRRK2 G2019S TR-FRET biochemical kinase assay (LRRKtide substrate)
Settings: 5 nM LRRK2, 134 μM ATP, 60 minute reaction, 23° C.
Outline: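 TR-FRET phospho-LRRKtide readout (2 nM antibody, 10 mM EDTA, 60 min) after a 60 min, 23 °C kinase reaction. The reaction used 134 μM ATP and 5 nM enzyme in pH 7.5 Tris/MgCl2/EGTA/DTT buffer, with compound and enzyme-substrate mix preincubated for 20 min beforehand.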

Chain of LRRK2 G2019S enzyme (Q5S007 whole entry G2019S): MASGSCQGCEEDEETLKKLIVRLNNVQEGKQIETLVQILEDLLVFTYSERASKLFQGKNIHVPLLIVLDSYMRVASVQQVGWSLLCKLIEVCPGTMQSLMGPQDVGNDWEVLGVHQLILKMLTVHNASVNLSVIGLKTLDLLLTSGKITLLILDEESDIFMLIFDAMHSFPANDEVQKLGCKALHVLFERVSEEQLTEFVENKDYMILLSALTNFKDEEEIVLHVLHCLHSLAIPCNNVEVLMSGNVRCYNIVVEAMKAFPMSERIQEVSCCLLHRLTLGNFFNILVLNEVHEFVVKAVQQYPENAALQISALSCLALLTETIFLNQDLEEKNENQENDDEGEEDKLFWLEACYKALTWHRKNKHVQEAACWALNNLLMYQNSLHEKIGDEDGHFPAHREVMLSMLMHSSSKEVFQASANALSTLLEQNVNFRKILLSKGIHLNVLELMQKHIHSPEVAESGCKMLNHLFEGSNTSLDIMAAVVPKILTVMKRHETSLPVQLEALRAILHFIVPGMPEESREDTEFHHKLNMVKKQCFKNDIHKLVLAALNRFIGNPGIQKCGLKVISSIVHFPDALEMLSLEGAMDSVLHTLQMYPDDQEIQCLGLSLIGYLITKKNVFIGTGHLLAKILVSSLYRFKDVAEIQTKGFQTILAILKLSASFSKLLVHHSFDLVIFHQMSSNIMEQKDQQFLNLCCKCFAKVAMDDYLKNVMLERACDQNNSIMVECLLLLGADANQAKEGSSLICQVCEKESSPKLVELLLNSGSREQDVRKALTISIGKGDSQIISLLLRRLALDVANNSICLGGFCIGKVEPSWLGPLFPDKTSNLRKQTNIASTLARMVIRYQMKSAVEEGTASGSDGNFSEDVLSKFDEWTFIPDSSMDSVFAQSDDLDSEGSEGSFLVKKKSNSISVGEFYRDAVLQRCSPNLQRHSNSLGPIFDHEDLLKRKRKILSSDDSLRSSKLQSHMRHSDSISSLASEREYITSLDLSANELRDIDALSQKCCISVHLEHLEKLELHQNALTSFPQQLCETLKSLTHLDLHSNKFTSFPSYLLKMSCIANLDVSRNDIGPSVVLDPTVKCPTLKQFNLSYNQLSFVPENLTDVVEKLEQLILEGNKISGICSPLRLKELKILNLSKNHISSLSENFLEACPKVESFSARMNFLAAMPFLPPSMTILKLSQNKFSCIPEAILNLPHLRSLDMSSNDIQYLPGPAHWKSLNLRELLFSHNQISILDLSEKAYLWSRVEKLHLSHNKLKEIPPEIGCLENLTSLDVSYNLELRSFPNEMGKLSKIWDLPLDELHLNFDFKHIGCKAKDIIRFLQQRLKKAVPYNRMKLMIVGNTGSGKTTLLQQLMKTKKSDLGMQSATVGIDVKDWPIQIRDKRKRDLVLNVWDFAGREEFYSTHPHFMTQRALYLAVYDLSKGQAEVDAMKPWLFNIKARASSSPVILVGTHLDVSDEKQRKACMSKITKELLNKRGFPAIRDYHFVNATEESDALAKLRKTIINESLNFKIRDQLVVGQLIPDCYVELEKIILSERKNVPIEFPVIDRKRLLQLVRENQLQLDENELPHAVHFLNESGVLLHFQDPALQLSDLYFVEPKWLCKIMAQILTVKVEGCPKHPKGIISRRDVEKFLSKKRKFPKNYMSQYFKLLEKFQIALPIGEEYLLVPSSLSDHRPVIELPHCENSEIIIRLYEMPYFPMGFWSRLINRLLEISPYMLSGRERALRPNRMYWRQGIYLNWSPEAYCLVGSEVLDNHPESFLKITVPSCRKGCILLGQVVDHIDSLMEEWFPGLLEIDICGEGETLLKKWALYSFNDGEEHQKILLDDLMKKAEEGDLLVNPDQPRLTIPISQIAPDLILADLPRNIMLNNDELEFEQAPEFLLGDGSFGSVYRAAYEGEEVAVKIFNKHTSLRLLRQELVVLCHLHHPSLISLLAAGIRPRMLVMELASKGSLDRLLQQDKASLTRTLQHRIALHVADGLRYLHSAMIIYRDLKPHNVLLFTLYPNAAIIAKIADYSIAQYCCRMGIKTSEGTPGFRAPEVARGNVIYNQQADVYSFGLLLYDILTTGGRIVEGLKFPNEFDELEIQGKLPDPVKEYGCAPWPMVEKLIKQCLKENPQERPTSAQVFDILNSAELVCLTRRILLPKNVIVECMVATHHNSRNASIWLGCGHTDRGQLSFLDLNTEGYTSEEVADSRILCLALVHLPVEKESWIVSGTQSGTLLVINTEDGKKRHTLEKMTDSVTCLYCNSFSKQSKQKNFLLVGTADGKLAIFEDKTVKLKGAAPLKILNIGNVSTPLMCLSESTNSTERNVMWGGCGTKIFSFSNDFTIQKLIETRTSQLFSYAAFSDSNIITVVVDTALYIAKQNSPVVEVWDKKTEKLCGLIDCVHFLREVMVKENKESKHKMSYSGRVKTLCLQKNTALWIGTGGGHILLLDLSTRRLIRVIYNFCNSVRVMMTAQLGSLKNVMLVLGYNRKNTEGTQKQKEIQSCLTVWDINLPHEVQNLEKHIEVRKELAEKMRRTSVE

SMILES	IC50 (Table C-2) [nM]	IC50 (Table D-4) [nM]
Cc1c(Nc2nc(C3CC3)c3c(C#N)c[nH]c3n2)cnn1C(F)F [Compound C-39]	< 50	
Cc1nn(C(F)F)cc1Nc1nc(C2CC2)c2c(C#N)c[nH]c2n1 [Compound C-40]	< 50	
Cc1nn(C(C)(C)C#N)cc1Nc1nc(C2CC2)c2c(C3CC3)c[nH]c2n1 [Compound C-41]	< 50	
Cc1nn(C(C)(C)C#N)cc1Nc1nc(C2CC2)c2c(C(F)(F)F)c[nH]c2n1 [Compound C-42]	< 50	
Cc1c(Nc2nc(C3CC3)c3c(C#N)c[nH]c3n2)cnn1C1CC2CC2C1 (stereo not shown) [Compound C-43]	< 50	
Cc1nn(C2CC3CC3C2)cc1Nc1nc(C2CC2)c2c(C#N)c[nH]c2n1 (stereo not shown) [Compound C-44]	< 50	
Cc1c(Nc2nc(C3CC3)c3nc[nH]c3n2)cnn1C1CC2CC2C1 (stereo not shown) [Compound C-45]	< 50	
Cc1nn(C2CC3CC3C2)cc1Nc1nc(C2CC2)c2nc[nH]c2n1 (stereo not shown) [Compound C-46]	< 50	
Cc1c(Nc2nc(C3CC3)c3c(C#N)c[nH]c3n2)cnn1CCOC(F)F [Compound C-47]	< 50	
Cc1c(Nc2nc(C3CC3)c3nc[nH]c3n2)cnn1CCOC(F)F [Compound C-48]	< 50	
Cc1c(Nc2nc(C3CC3)c3nc[nH]c3n2)cnn1C1CC1 [Compound C-49]	< 50	
Cc1nn(C2CC2)cc1Nc1nc(C2CC2)c2nc[nH]c2n1 [Compound C-50]	< 50	
Cc1nn(CC2CC2)cc1Nc1nc(C2CC2)c2nc[nH]c2n1 [Compound C-52]	< 50	
Cc1c(Nc2cc(C3CC3)c3c(C#N)c[nH]c3n2)cnn1C1CC1 [Compound C-53]	< 50	
Cc1nn(C2CC2)cc1Nc1cc(C2CC2)c2c(C#N)c[nH]c2n1 [Compound C-54]	< 50	
Cc1nn(C(CF)CF)cc1Nc1nc(C2CC2)c2c(Cl)c[nH]c2n1 [Compound C-55]	< 50	
CNc1nc(Nc2cn(CC3(CC#N)CC3)nc2C)ncc1C(F)(F)F [Compound D-1, 2-(1-((3-methyl-4-((4-(methylamino)-5-(trifluoromethyl)pyrimidin-2-yl)amino)-1H-pyrazol-1-yl)methyl)cyclopropyl)acetonitrile]		> 60
CNc1nc(Nc2cnn(C3CCn4ccnc43)c2C)ncc1C(F)(F)F [Compound D-2, N2-[1-(6,7-dihydro-5H-pyrrolo[1,2-a]imidazol-7-yl)-5-methyl-pyrazol-4-yl]-N4-methyl-5-(trifluoromethyl)pyrimidine-2,4-diamine]		< 30
CNc1nc(Nc2cn(CC3(Cn4cncn4)CC3)nc2C)ncc1C(F)(F)F [Compound D-5, N2-(1-((1-((1H-1,2,4-triazol-1-yl)methyl)cyclopropyl)methyl)-3-methyl-1H-pyrazol-4-yl)-N4-methyl-5-(trifluoromethyl)pyrimidine-2,4-diamine]		> 60
CNc1nc(Nc2cnn(CC3(Cn4cncn4)CC3)c2C)ncc1C(F)(F)F [Compound D-6, N2-(1-((1-((1H-1,2,4-triazol-1-yl)methyl)cyclopropyl)methyl)-5-methyl-1H-pyrazol-4-yl)-N4-methyl-5-(trifluoromethyl)pyrimidine-2,4-diamine]		< 30
CNc1nc(Nc2cnn(C3CCc4nnc(C)n4C3)c2C)ncc1C(F)(F)F [Compound D-7, N4-methyl-N2-[5-methyl-1-(3-methyl-5,6,7,8-tetrahydro-[1,2,4]triazolo[4,3-a]pyridin-6-yl)pyrazol-4-yl]-5-(trifluoromethyl)pyrimidine-2,4-diamine]		< 30
CNc1nc(Nc2cn(C3CCc4nnc(C)n4C3)nc2C)ncc1C(F)(F)F [Compound D-8, N4-methyl-N2-[3-methyl-1-(3-methyl-5,6,7,8-tetrahydro-[1,2,4]triazolo[4,3-a]pyridin-6-yl)pyrazol-4-yl]-5-(trifluoromethyl)pyrimidine-2,4-diamine]		> 60

SMILES	IC50 (Table C-2) [nM]	IC50 (Table D-4) [nM]
CNc1nc(Nc2cnn(CCOC(F)F)c2C)ncc1C(F)(F)F [Compound D-9, N2-[1-[2-(difluoromethoxy)ethyl]-5-methyl-pyrazol-4-yl]-N4-methyl-5-(trifluoromethyl)pyrimidine-2,4-diamine]		< 30
CNc1nc(Nc2cn(CCOC(F)F)nc2C)ncc1C(F)(F)F [Compound D-10, N2-[1-[2-(difluoromethoxy)ethyl]-3-methyl-pyrazol-4-yl]-N4-methyl-5-(trifluoromethyl)pyrimidine-2,4-diamine]		30 to 60
CNc1nc(Nc2cnn(CCOC(F)F)c2Cl)ncc1C(F)(F)F [Compound D-11, N2-[5-chloro-1-[2-(difluoromethoxy)ethyl]pyrazol-4-yl]-N4-methyl-5-(trifluoromethyl)pyrimidine-2,4-diamine]		< 30
CNc1nc(Nc2cnn(CC3(COC)CC3)c2Cl)ncc1C(F)(F)F [Compound D-12, N2-[5-chloro-1-[[1-(methoxymethyl)cyclopropyl]methyl]pyrazol-4-yl]-N4-methyl-5-(trifluoromethyl)pyrimidine-2,4-diamine]		< 30
CNc1nc(Nc2cn(C(F)(F)C#N)nc2C)ncc1C(F)(F)F [Compound D-13, 2,2-difluoro-2-[3-methyl-4-[[4-(methylamino)-5-(trifluoromethyl)pyrimidin-2-yl]amino]pyrazol-1-yl]acetonitrile]		< 30
CNc1nc(Nc2cn(C(F)(F)C(N)=O)nc2C)ncc1C(F)(F)F [Compound D-14, 2,2-difluoro-2-[3-methyl-4-[[4-(methylamino)-5-(trifluoromethyl)pyrimidin-2-yl]amino]pyrazol-1-yl]acetamide]		< 30
CCNc1nc(Nc2cnn(CCOC(F)F)c2C)ncc1C(F)(F)F [Compound D-15, N2-[1-[2-(difluoromethoxy)ethyl]-5-methyl-pyrazol-4-yl]-N4-ethyl-5-(trifluoromethyl)pyrimidine-2,4-diamine]		< 30
CCNc1nc(Nc2cn(CCOC(F)F)nc2C)ncc1C(F)(F)F [Compound D-16, N2-[1-[2-(difluoromethoxy)ethyl]-3-methyl-pyrazol-4-yl]-N4-ethyl-5-(trifluoromethyl)pyrimidine-2,4-diamine]		< 30
CNc1nc(Nc2cnn(CC(C)OC(F)F)c2C)ncc1C(F)(F)F [Compound D-17]		< 30
CNc1nc(Nc2cn(CC(C)OC(F)F)nc2C)ncc1C(F)(F)F [Compound D-18]		> 60
CNc1nc(Nc2cnn(C[C@@H](C)OC(F)F)c2C)ncc1C(F)(F)F [Compound D-19, N2-[1-[(2R)-2-(difluoromethoxy)propyl]-5-methyl-pyrazol-4-yl]-N4-methyl-5-(trifluoromethyl)pyrimidine-2,4-diamine]		< 30
CNc1nc(Nc2cn(C[C@@H](C)OC(F)F)nc2C)ncc1C(F)(F)F [Compound D-20, N2-[1-[(2R)-2-(difluoromethoxy)propyl]-3-methyl-pyrazol-4-yl]-N4-methyl-5-(trifluoromethyl)pyrimidine-2,4-diamine]		> 60
CNc1nc(Nc2cn(C(C)COC(F)F)nc2C)ncc1C(F)(F)F [Compound D-21, N2-[1-[2-(difluoromethoxy)-1-methyl-ethyl]-3-methyl-pyrazol-4-yl]-N4-methyl-5-(trifluoromethyl)pyrimidine-2,4-diamine]		30 to 60
CNc1nc(Nc2cnn([C@H]3C[C@H](OC(F)F)C3)c2C)ncc1C(F)(F)F [Compound D-25, trans-N2-[1-[3-(difluoromethoxy)cyclobutyl]-5-methyl-pyrazol-4-yl]-N4-methyl-5-(trifluoromethyl)pyrimidine-2,4-diamine]		< 30
CNc1nc(Nc2cn([C@H]3C[C@H](OC(F)F)C3)nc2C)ncc1C(F)(F)F [Compound D-26, trans-N2-[1-[3-(difluoromethoxy)cyclobutyl]-3-methyl-pyrazol-4-yl]-N4-methyl-5-(trifluoromethyl)pyrimidine-2,4-diamine]		< 30
CNc1nc(Nc2cn([C@H]3C[C@@H](n4cccn4)C3)nc2C)ncc1C(F)(F)F [Compound D-27, cis-N4-methyl-N2-[3-methyl-1-(3-pyrazol-1-ylcyclobutyl)pyrazol-4-yl]-5-(trifluoromethyl)pyrimidine-2,4-diamine]		< 30
CNc1nc(Nc2cn([C@H]3C[C@@H](S(C)(=O)=O)C3)nc2C)ncc1C(F)(F)F [Compound D-28, cis-N4-methyl-N2-[3-methyl-1-(3-methylsulfonylcyclobutyl)pyrazol-4-yl]-5-(trifluoromethyl)pyrimidine-2,4-diamine]		< 30
CNc1nc(Nc2cnn([C@H]3C[C@H](CC#N)C3)c2C)ncc1C(F)(F)F [Compound D-29, trans-2-[3-[4-[[5-(difluoromethyl-fluoranyl)-4-(methylamino)pyrimidin-2-yl]amino]-5-methyl-pyrazol-1-yl]cyclobutyl]acetonitrile]		< 30
CNc1nc(Nc2cn([C@H]3C[C@H](CC#N)C3)nc2C)ncc1C(F)(F)F [Compound D-30, trans-2-[3-[4-[[5-(difluoromethyl-fluoranyl)-4-(methylamino)pyrimidin-2-yl]amino]-3-methyl-pyrazol-1-yl]cyclobutyl]acetonitrile]		< 30
CNc1nc(Nc2cnn([C@H]3C[C@H](COC(F)F)C3)c2C)ncc1C(F)(F)F [Compound D-31, trans-N2-[1-[3-(difluoromethoxymethyl)cyclobutyl]-5-methyl-pyrazol-4-yl]-5-(difluoromethyl-fluoranyl)-N4-methyl-pyrimidine-2,4-diamine]		< 30
CNc1nc(Nc2cn([C@H]3C[C@H](COC(F)F)C3)nc2C)ncc1C(F)(F)F [Compound D-32, trans-N2-[1-[3-(difluoromethoxymethyl)cyclobutyl]-3-methyl-pyrazol-4-yl]-5-(difluoromethyl-fluoranyl)-N4-methyl-pyrimidine-2,4-diamine]		< 30
